The text below walks through data of patent publication US20060135435A1, “Agent that retards transformation of hormone-dependent cancer to non-hormone-dependent cancer” (priority 1998, published 2006).

Usually melting point stands for the temperature, or range, at which the solid turns liquid. `C(=C\c1nc(COc2ccc(CCCn3cncn3)cc2)co1)/c1ccccc1` [Reference Example 3, 1-[3-[4-[2-[(E)-2-phenylethenyl]-4-oxazolylmethoxy]phenyl]propyl]-1,2,4-triazole]: the melting point was in the range of 108 to 109 °C.
